Test results from publication PMC6906472, “Purification and biological activity of natural variants synthesized by tridecaptin M gene cluster and in vitro drug-kinetics of this antibiotic class” (Scientific Reports, 2019).
Square brackets hold non-standard residues; d marks the D form. Peptide text beside a SMILES is read from it. * marks the point of attachment. d(aIle) = CC[C@H](C)[C@@H](N)C(=O)O; X1 = CC[C@H](C)CCCCC(=O)*; dDab = NCC[C@@H](N)C(=O)O; Dab = NCC[C@H](N)C(=O)O

Experiments:
[1] = system: K. pneumoniae P3R (Tri-M Resistant); assay: microbe, parasite or virus in culture
Method: (§1) Acinetobacter baumannii ATCC 19606, Pseudomonas aeruginosa ATCC 27853, K. pneumoniae ATCC 700603, K. pneumoniae P3R, K. pneumoniae GMCH 13 and K. pneumoniae GMCH 15 were grown in CA-MHB and adjusted to ~4 × 10^5 CFU/ml. 100 µl of fresh CA-MHB containing carbonyl cyanide m-chlorophenyl hydrazine (CCCP) or phenylalanine-arginine beta-naphthylamide (PAβN) (at a final concentration of their 1/4th of MIC or 1/8th of MIC) was added to the wells of a 96-well flat bottom plate. Tridecaptin M was diluted in a 2-fold manner. 100 µl of culture was added and the plates were incubated for 16 to 18 h at 37 °C and observed for MICs. The fold modulation in MICs of tridecaptin M was calculated by comparing the results in the presence or absence of CCCP and PAβN.

A. baumannii ATCC 19606 [2] = assay: microbe, parasite or virus in culture; settings: ATCC 19606
Method: as §1

K. pneumoniae GMCH 15 [3] = assay: microbe, parasite or virus in culture; settings: GMCH 15
Method: as §1

P. aeruginosa ATCC 27853 [4] = assay: microbe, parasite or virus in culture; settings: ATCC 27853
Method: as §1

K. pneumoniae GMCH 13 [5] = assay: microbe, parasite or virus in culture; settings: GMCH 13
Method: as §1

A. baumannii ATCC 19606 [6] = settings: ATCC 19606
Method: (§2) MICs for all the compounds were determined by broth microdilution assay, according to CLSI guidelines[16] as described previously. Haemolysis experiments were performed with fresh rabbit RBCs[11]. All the compounds were tested at a concentration of 128 µg/ml. To obtain rabbit blood, the experiments and the protocols were in accordance with the ethical standards of the Institutional Animal Ethics Committee (IAEC) of the Institute of Microbial Technology approved (Approval no. IAEC/17/11) by Committee for the Purpose of Control And Supervision of Experiments on Animals (CPCSEA, Government of India).

[7] = system: K. pneumoniae AH-16 (Col-R)
Method: as §2

K. pneumoniae GMCH 15 [8] = system: K. pneumoniae GMCH 15
Method: as §2

K. pneumoniae P3R (M1-R) = settings: broth microdilution, CLSI guidelines; M1-resistant mutant of ATCC 700603
Method: as §2

P. aeruginosa ATCC 27853 [9] = settings: ATCC 27853
Method: as §2

[10] = system: K. pneumoniae ATCC 700603
Method: as §2

[11] = system: Proteus mirabilis MTCC 1429
Method: as §2

E. coli CF-23 (mcr-1) = system: E. coli CF-23 (mcr-1)
Method: as §2

[12] = system: Serratia marcescens MTCC 97
Method: as §2

[13] = system: K. pneumoniae AH-3 (Col-R)
Method: as §2

K. pneumoniae GMCH 13 [14] = system: K. pneumoniae GMCH 13
Method: as §2

## CC[C@H](C)CCCCC(=O)NCC(=O)N[C@H](CCN)C(=O)NCC(=O)N[C@H](CO)C(=O)N[C@H](Cc1c[nH]c2ccccc12)C(=O)N[C@@H](CO)C(=O)N[C@@H](CCN)C(=O)N[C@H](CCN)C(=O)N[C@H](C(=O)N[C@@H](CCC(=O)O)C(=O)N[C@H](C(=O)N[C@@H](C(=O)N[C@@H](CO)C(=O)O)[C@@H](C)CC)[C@@H](C)CC)[C@@H](C)CC [M1, tridecaptin M] (X1-G[dDab]G[dS][dW]S[Dab][dDab]IEI[d(aIle)]S-OH)
[1]; CCCP at 1/4th MIC
  MIC of peptide in the presence of CCCP: 64 µg/mL
[1]; CCCP at 1/8th MIC
  MIC of peptide in the presence of CCCP: 64 µg/mL
[1]; PAβN at 1/4th MIC
  MIC of peptide in the presence of PAβN: 64 µg/mL
[1]; PAβN at 1/8th MIC
  MIC of peptide in the presence of PAβN: 64 µg/mL
[1]; ~4 × 10^5 CFU/ml, CA-MHB, 16 to 18 h, 37 °C
  Intrinsic Activity; MIC: 64 µg/mL
A. baumannii ATCC 19606 [2]
  Intrinsic Activity; MIC: 64 µg/mL
  MIC of peptide in the presence of PAβN: 64 µg/mL
K. pneumoniae GMCH 15 [3]
  Intrinsic Activity; MIC: 16 µg/mL
  MIC of peptide in the presence of PAβN: 16 µg/mL
P. aeruginosa ATCC 27853 [4]
  Intrinsic Activity; MIC: 256 µg/mL
  MIC of peptide in the presence of CCCP: 256 µg/mL
  MIC of peptide in the presence of PAβN: 256 µg/mL
K. pneumoniae GMCH 13 [5]
  FICI: 0.75
  Intrinsic Activity; MIC: 8 µg/mL
  MIC of peptide in the presence of PAβN: 8 µg/mL
A. baumannii ATCC 19606 [6]
  Peptide MIC: 64 µg/mL
[7]
  Peptide MIC: 4 µg/mL
K. pneumoniae GMCH 15 [8]
  Peptide MIC: 16 µg/mL
K. pneumoniae P3R (M1-R)
  Peptide MIC: 64 µg/mL
P. aeruginosa ATCC 27853 [9]
  Peptide MIC: >128 µg/mL
[10]
  Peptide MIC: 4 µg/mL
[11]
  Peptide MIC: >16 µg/mL
E. coli CF-23 (mcr-1)
  Peptide MIC: 4 µg/mL
[12]
  Peptide MIC: 8 µg/mL
[13]
  Peptide MIC: 4 µg/mL
K. pneumoniae GMCH 13 [14]
  Peptide MIC: 8 µg/mL
